Source: patent US6737383B1, “Herbicidal oxadiazolidines” (priority 1999, dated 2004)

How the values were obtained:
corn = assay: Test B pre/postemergence corn; type: in vivo, Zea mays
In short: (§1)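 Response is a visual 0-to-10 score relative to untreated plants, where 0 means no effect and 10 means complete control, taken twelve to sixteen days after application. Treatments went onto soil at planting and onto foliage of 1- to 4-leaf plants, using a surfactant-containing non-phytotoxic solvent.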

wild oat = assay: Test B pre/postemergence wild oat; type: in vivo, Avena fatua; details: for Plant response rating, Wild oats: Rate 250 g/ha
In short: as §1

duck salad = assay: Test B flood test duck salad; type: in vivo, Heteranthera limosa
In short: (§2)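 Flood test on plants grown to the 2-leaf stage; treated plants kept in greenhouse twelve to sixteen days, then visually rated against controls on a 0 (no effect) to 10 (complete control) scale.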

bamyardgrass = assay: Test B flood test barnyardgrass; type: in vivo, Echinochloa crus-galli
In short: as §2

crabgrass = assay: Test B pre/postemergence crabgrass; type: in vivo, Digitaria sanguinalis
In short: as §1

pigweed = assay: Test B pre/postemergence pigweed; type: in vivo, Amaranthus retroflexus
In short: as §1

giant foxtail = assay: Test B pre/postemergence giant foxtail; type: in vivo, Setaria faberii
In short: as §1

morningglory = assay: Test B pre/postemergence morningglory; type: in vivo, Ipomoea hederacea
In short: as §1

rape = assay: Test B pre/postemergence rape; type: in vivo, Brassica napus
In short: as §1

sugar beet = assay: Test B pre/postemergence sugar beet; type: in vivo, Beta vulgaris; details: for Plant response rating, Sugarbeets: Rate 250 g/ha
In short: as §1

velvetleaf = assay: Test B pre/postemergence velvetleaf; type: in vivo, Abutilon theophrasti; details: for Plant response rating, Velvetleaf: Rate 250 g/ha
In short: as §1

soybean = assay: Test B pre/postemergence soybean; type: in vivo, Glycine max
In short: as §1

wheat = assay: Test B pre/postemergence wheat; type: in vivo, Triticum aestivum; details: for Plant response rating, Wheat: Rate 250 g/ha
In short: as §1

rice = assay: Test B flood test rice; type: in vivo, Oryza sativa
In short: as §2

purple nutsedge = assay: Test B pre/postemergence purple nutsedge; type: in vivo, Cyperus rotundus
In short: as §1

cocklebur = assay: Test B pre/postemergence cocklebur; type: in vivo, Xanthium strumarium
In short: as §1

[1] = Postemergence, Rate 125 g/ha, scale of 0 to 10 where 0 is no effect and 10 is complete control
[2] = Postemergence, Rate 250 g/ha, scale 0 to 10, 0 no effect, 10 complete control
[3] = Preemergence, Rate 62 g/ha, scale 0 to 10 (0 no effect, 10 complete control)
[4] = Preemergence, Rate 125 g/ha, scale 0 to 10 (0 no effect, 10 complete control)
[5] = Preemergence, Rate 250 g/ha, scale of 0 to 10 where 0 is no effect and 10 is complete control
[6] = Preemergence, Rate 500 g/ha, scale 0 to 10 (0 no effect, 10 complete control)
[7] = Rate 62 g/ha, Postemergence, scale of 0 to 10 where 0 is no effect and 10 is complete control
[8] = Rate 500 g/ha, Postemergence, scale 0 to 10, 0 no effect, 10 complete control
[9] = Preemergence, Rate 125 g/ha, 0 is no effect, 10 is complete control
[10] = Preemergence, scale of 0 to 10 where 0 is no effect and 10 is complete control
[11] = Postemergence, scale 0 to 10, 0 is no effect, 10 is complete control
[12] = Rate 250 g/ha, headed Pre-emergence (flood test species), scale 0 to 10 (0 no effect, 10 complete control)
[13] = Rate 500 g/ha, headed Pre-emergence (flood test species), scale 0 to 10 (0 no effect, 10 complete control)
[14] = Rate 1000 g/ha, Pre-emergence (as headed), scale 0 to 10
[15] = Rate 2000 g/ha, Pre-emergence (as headed), scale 0 to 10
[16] = Rate 250 g/ha, Postemergence, scale 0 to 10, 0 is no effect, 10 is complete control

SMILES: CC(C)N(C(=O)n1oc(=O)n(Cc2cccs2)c1=O)c1ccccc1 [Compound 103]
- Corn plant response rating (corn; [1]): 0
- Corn plant response rating (corn; [2]): 0
- Corn plant response rating (corn; [3]): 0
- Plant response rating, Corn (corn; [4]): 0
- Plant response rating, Corn (corn; [5]): 0
- Corn plant response rating (corn; [6]): 0
- Corn plant response rating (corn; [7]): 0
- Corn plant response rating (corn; [8]): 2
- Wild oats plant response rating (wild oat; [1]): 0
- Wild oats plant response rating (wild oat; [3]): 0
- Wild oats plant response rating (0 to 10 scale) (wild oat; [9]): 0
- Plant response rating, Wild oats (wild oat; [10]): 3
- Wild oats plant response rating (wild oat; [6]): 6
- Wild oats plant response rating (wild oat; [7]): 0
- Plant response rating, Wild oats (wild oat; [11]): 0
- Wild oats plant response rating (wild oat; [8]): 0
- Ducksalad plant response rating (duck salad; [12]): 0
- Plant response rating, Ducksalad (duck salad; [13]): 0
- Ducksalad plant response rating (duck salad; [14]): 0
- Ducksalad plant response rating (duck salad; [15]): 0
- Barnyardgrass plant response rating (bamyardgrass; [12]): 0
- Plant response rating, Barnyardgrass (bamyardgrass; [13]): 0
- Barnyardgrass plant response rating (bamyardgrass; [14]): 0
- Barnyardgrass plant response rating (bamyardgrass; Rate 2000 g/ha, Pre-emergence (as headed), scale 0 to 10, 0 no effect, 10 complete control): 0
- Crabgrass plant response rating (crabgrass; [1]): 4
- Crabgrass plant response rating (crabgrass; [2]): 6
- Crabgrass plant response rating (crabgrass; [3]): 2
- Plant response rating, Crabgrass (crabgrass; [4]): 6
- Plant response rating, Crabgrass (crabgrass; [5]): 9
- Crabgrass plant response rating (crabgrass; [7]): 0
- Crabgrass plant response rating (crabgrass; [8]): 9
- Redroot pigweed plant response rating (pigweed; [1]): 0
- Redroot pigweed plant response rating (pigweed; [3]): 0
- Plant response rating, Redroot pigweed (pigweed; [4]): 0
- Plant response rating, Redroot pigweed (pigweed; [5]): 6
- Redroot pigweed plant response rating (pigweed; [6]): 7
- Redroot pigweed plant response rating (pigweed; [7]): 0
- Plant response rating, Redroot pigweed (pigweed; [16]): 2
- Redroot pigweed plant response rating (pigweed; [8]): 4
- Giant foxtail plant response rating (giant foxtail; [1]): 1
- Giant foxtail plant response rating (giant foxtail; [2]): 3
- Giant foxtail plant response rating (giant foxtail; [3]): 8
- Plant response rating, Giant foxtail (giant foxtail; [4]): 9
- Plant response rating, Giant foxtail (giant foxtail; [5]): 9
- Giant foxtail plant response rating (giant foxtail; [6]): 9
- Giant foxtail plant response rating (giant foxtail; [7]): 0
- Giant foxtail plant response rating (giant foxtail; [8]): 7
- Morningglory plant response rating (morningglory; [1]): 10
- Morningglory plant response rating (morningglory; [2]): 10
- Morningglory plant response rating (morningglory; [3]): 0
- Plant response rating, Morningglory (morningglory; [4]): 0
- Plant response rating, Morningglory (morningglory; [5]): 0
- Morningglory plant response rating (morningglory; [6]): 0
- Morningglory plant response rating (morningglory; [7]): 8
- Morningglory plant response rating (morningglory; [8]): 10
- Rape plant response rating (rape; [1]): 0
- Rape plant response rating (rape; [2]): 1
- Rape plant response rating (rape; [3]): 0
- Plant response rating, Rape (rape; [4]): 0
- Plant response rating, Rape (rape; [5]): 0
- Rape plant response rating (rape; [6]): 0
- Rape plant response rating (rape; [7]): 0
- Rape plant response rating (rape; [8]): 3
- Sugarbeets plant response rating (sugar beet; [1]): 2
- Sugarbeets plant response rating (sugar beet; [3]): 0
- Sugarbeets plant response rating (0 to 10 scale) (sugar beet; [9]): 0
- Plant response rating, Sugarbeets (sugar beet; [10]): 0
- Sugarbeets plant response rating (sugar beet; [6]): 4
- Sugarbeets plant response rating (sugar beet; [7]): 1
- Plant response rating, Sugarbeets (sugar beet; [11]): 2
- Sugarbeets plant response rating (sugar beet; [8]): 3
- Velvetleaf plant response rating (velvetleaf; [1]): 0
- Velvetleaf plant response rating (velvetleaf; [3]): 0
- Velvetleaf plant response rating (0 to 10 scale) (velvetleaf; [9]): 0
- Plant response rating, Velvetleaf (velvetleaf; [10]): 3
- Velvetleaf plant response rating (velvetleaf; [6]): 3
- Velvetleaf plant response rating (velvetleaf; [7]): 0
- Plant response rating, Velvetleaf (velvetleaf; [11]): 1
- Velvetleaf plant response rating (velvetleaf; [8]): 4
- Soybean plant response rating (soybean; [1]): 4
- Soybean plant response rating (soybean; [3]): 0
- Plant response rating, Soybean (soybean; [4]): 0
- Plant response rating, Soybean (soybean; [5]): 0
- Soybean plant response rating (soybean; [6]): 0
- Soybean plant response rating (soybean; [7]): 4
- Plant response rating, Soybean (soybean; [16]): 4
- Soybean plant response rating (soybean; [8]): 6
- Wheat plant response rating (wheat; [1]): 0
- Wheat plant response rating (wheat; [3]): 0
- Wheat plant response rating (0 to 10 scale) (wheat; [9]): 0
- Plant response rating, Wheat (wheat; [10]): 0
- Wheat plant response rating (wheat; [6]): 2
- Wheat plant response rating (wheat; [7]): 0
- Plant response rating, Wheat (wheat; [11]): 0
- Wheat plant response rating (wheat; [8]): 0
- Rice plant response rating (rice; [12]): 0
- Plant response rating, Rice (rice; [13]): 0
- Rice plant response rating (rice; [14]): 0
- Rice plant response rating (rice; [15]): 0
- Nutsedge plant response rating (purple nutsedge; [1]): 0
- Nutsedge plant response rating (purple nutsedge; [2]): 0
- Nutsedge plant response rating (purple nutsedge; [3]): 0
- Plant response rating, Nutsedge (purple nutsedge; [4]): 0
- Plant response rating, Nutsedge (purple nutsedge; [5]): 0
- Nutsedge plant response rating (purple nutsedge; [6]): 0
- Nutsedge plant response rating (purple nutsedge; [7]): 0
- Nutsedge plant response rating (purple nutsedge; [8]): 0
- Cocklebur plant response rating (cocklebur; [1]): 0
- Cocklebur plant response rating (cocklebur; [2]): 0
- Cocklebur plant response rating (cocklebur; [3]): 0
- Plant response rating, Cocklebur (cocklebur; [4]): 0
- Cocklebur plant response rating (cocklebur; [6]): 0
- Cocklebur plant response rating (cocklebur; [7]): 0
- Cocklebur plant response rating (cocklebur; [8]): 0
